In general, inhibition refers to the relative decrease from the control value, in per cent. For orientation: GI50 means the concentration at which growth is held to half of that of the control.

Where two headings read alike, the source gives them in different places.

Assay [1] concerns T1, α-L-fucosidase (bovine kidney).
T1 construct: purchased Sigma-Aldrich; host or cells: bovine kidney
The assay can be described thus: Glycosidase inhibition (Table 2 panel). Type of assay: biochemical. The conditions noted are these: at 1000 μM. An outline of the steps:
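Read-out was absorbance at 400 nm of para-nitrophenol freed from a […] para-nitrophenyl glycoside substrate, after the reaction was stopped with […]. Each enzyme was run at its optimum pH […].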

In assay [2] the test system is T2, amyloglucosidase (A. niger).
T2 construct: purchased Sigma-Aldrich
The assay can be described thus: Glycosidase inhibition (Table 2 panel). In kind it is biochemical. An excerpt:
(§1) The enzymes α-D-glucosidase (yeast), β-D-glucosidases (almond, bovine liver), α-D-galactosidase (coffee beans), β-D-galactosidase (bovine liver), α-D-mannosidase (Jack bean), β-D-mannosidase (snail), α-L-rhamnosidase (P. decumbens), α-L-fucosidase (bovine kidney), trehalase (porcine kidney), β-D-glucuronidases (E. coli, bovine liver), amyloglucosidase (A. niger), para-nitrophenyl glycosides, and various disaccharides were purchased from Sigma-Aldrich Co (St. Louis, MO, USA).
(§2) Brush border membranes were prepared from the rat small intestine according to the method of Kessler et al., and were assayed at pH 6.8 for rat intestinal maltase using maltose. […] The reaction was stopped by heating at 100 °C for 3 min. After centrifugation (600 g; 10 min), the resulting reaction mixture was added to the Glucose CII-test Wako (Wako Pure Chemical Ind., Osaka, Japan). […] Other glycosidase activities were determined using an appropriate para-nitrophenyl glycoside as substrate at the optimum pH of each enzyme. The reaction mixture contained the substrate ([…]) and the appropriate amount of enzyme. The reaction was stopped by the addition of Na2CO3 (400 μM). The released para-nitrophenol was measured spectrometrically at 400 nm. All reactions were run in methanol.

The target of assay [3] is T3, α-D-glucosidase (yeast) (Saccharomyces cerevisiae, UniProt P53341).
T3 construct: purchased Sigma-Aldrich
The assay can be described thus: Glycosidase inhibition (Table 2 panel). In kind it is biochemical. The conditions noted are these: for inhibition at 100 µM / inhibition at 1000 µM: read-out: inhibition % α-D-Glucosidase Yeast.
Excerpt: as §1, §2

In assay [4] the test system is T4, β-D-glucuronidase (E. coli).
T4 construct: purchased Sigma-Aldrich
Nature of the assay: Glycosidase inhibition (Table 2 panel). Type of assay: biochemical.
Excerpt: as §1, §2

Assay [5] concerns β-D-galactosidase (E. coli). Nature of the assay: Glycosidase inhibition (Table 2 panel). In kind it is biochemical. To be noted: at 100 μM.
In assay [6] the target is T3, α-D-glucosidase (yeast). The assay can be described thus: Glycosidase inhibition (Table 3 panel). Type of assay: biochemical. The conditions noted are these: 1 mg/mL aqueous solution, run in water; for inhibition at 1000 µg/mL (stock): read-out: Percentage inhibition α-D-Glucosidase Yeast. On the procedure:
All enzymes and para-nitrophenyl substrates were purchased from Sigma. Enzymes were assayed at 27 °C in citric acid (0.1 M)/disodium hydrogen phosphate (0.2 M) buffers at the optimum pH for the enzyme. The incubation mixture consisted of […] of 1 mg/mL aqueous solution of extract and […] of the appropriate 5 μM para-nitrophenyl substrate made up in buffer at the optimum pH for the enzyme. […] Assays were carried out in triplicate, and the values given are means of the three replicates per assay. All reactions were run in water.

The test system of the next assay is β-D-glucosidase (almond). The assay can be described thus: Glycosidase inhibition (Table 3 panel). Type of assay: biochemical. To be noted: 1 mg/mL aqueous solution; run in water. The method, then:
(§3) All enzymes and para-nitrophenyl substrates were purchased from Sigma. Enzymes were assayed at 27 °C in citric acid (0.1 M)/disodium hydrogen phosphate (0.2 M) buffers at the optimum pH for the enzyme. The incubation mixture consisted of […] of 1 mg/mL aqueous solution of extract and […] of the appropriate […] para-nitrophenyl substrate made up in buffer at the optimum pH for the enzyme. The reactions were stopped by addition of […] 0.4 M glycine (pH 10.4) during the exponential phase of the reaction, which had been determined at the beginning using uninhibited assays in which water replaced the inhibitor. Final absorbances were read at 405 nm using a Versamax microplate reader (Molecular Devices, Wokingham, UK). Assays were carried out in triplicate, and the values given are means of the three replicates per assay. All reactions were run in water.

Assay [7] deals with β-D-glucuronidase (bovine liver). The assay can be described thus: Glycosidase inhibition (Table 3 panel). Type of assay: biochemical. To be noted: 1 mg/mL aqueous solution; run in water. The method, then:
as §3

The subject of assay [8] is MIA-Pa-Ca2 (pancreatic carcinoma). The assay can be described thus: Cancer screening, MTT growth inhibition. In kind it is cell-based. The conditions noted are these: for inhibition at 25 µM: MIA PaCa-2, 25 µM of drug, read-out: DOSE SCREEN percentage (%) cell growth inhibition MIA-Pa-Ca2 Pancreatic; for GI50: read-out: DOSE RESPONSE GI50 MIA-Pa-Ca2 Pancreatic. A digest of the protocol: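 MTT growth inhibition: cells plated at 2500–4000 per well in DMEM with 10% FBS, compound added 24 h after plating during logarithmic growth, cultured at 37 °C, 5% CO2. Test agents from […] DMSO stocks. Values are means ± SEM of three independent experiments.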

Assay [9] relates to MCF10A (non-tumour derived normal breast cell line). Nature of the assay: Cancer screening, MTT growth inhibition. Type of assay: cell-based. To be noted: 72 h; for inhibition at 25 µM: read-out: DOSE SCREEN percentage (%) cell growth inhibition MCF10A Breast (normal); for GI50: read-out: DOSE RESPONSE GI50 MCF10A Breast (normal).
The mark [10] stands for this setting: Homo sapiens, MCF-10A, 25 µM of drug.

T3 sequence (P53341 whole entry): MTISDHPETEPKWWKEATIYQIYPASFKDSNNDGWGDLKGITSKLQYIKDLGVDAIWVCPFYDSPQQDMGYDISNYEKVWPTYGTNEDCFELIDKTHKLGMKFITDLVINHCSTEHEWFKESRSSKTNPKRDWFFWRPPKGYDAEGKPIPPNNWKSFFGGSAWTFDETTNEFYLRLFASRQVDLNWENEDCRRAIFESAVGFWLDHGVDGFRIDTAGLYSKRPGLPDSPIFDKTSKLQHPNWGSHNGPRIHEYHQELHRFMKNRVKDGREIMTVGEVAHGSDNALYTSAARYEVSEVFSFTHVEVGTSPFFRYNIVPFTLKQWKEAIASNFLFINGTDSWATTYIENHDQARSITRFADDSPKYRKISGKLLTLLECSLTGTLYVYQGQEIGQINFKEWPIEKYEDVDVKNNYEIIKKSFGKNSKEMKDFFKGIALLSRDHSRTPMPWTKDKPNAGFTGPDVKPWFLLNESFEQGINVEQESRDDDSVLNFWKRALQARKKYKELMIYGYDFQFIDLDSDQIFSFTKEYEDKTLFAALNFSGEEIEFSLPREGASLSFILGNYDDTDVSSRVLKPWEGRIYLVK

`OC[C@H](O)[C@@H]1[C@H](O)[C@H](O)CN1Cc1cccc(B(O)O)c1` [meta 4, N-(3-Methylphenylboronic acid)-1,4-dideoxy-1,4-imino-L-gulitol]: in [1], the “inhibition % α-L-Fucosidase Bovine Kidney” value was “^aNI ^b(3.0%)”. The “inhibition % Amyloglucosidase A. niger” value in assay [2] (at 100 μM) was “^cNI ^d(6.6%)”; in assay [2] (at 1000 μM) it was “^aNI ^b(3.6%)”. In addition, the inhibition at 100 µM on α-D-glucosidase (yeast) [3] worked out at 8.1%. In addition, at α-D-glucosidase (yeast) [3], the inhibition at 1000 µM was found to be 4.9%. In addition, the “inhibition % β-D-Glucuronidase E. coli” value was “^cNI ^d(3.5%)” in assay [4] (at 100 μM) and “^aNI ^b(20.6%)” in [4] (at 1000 μM). Also, the “inhibition % β-D-Galactosidase E. coli” value in assay [5] is reported as “^cNI ^d(4.9%)”. Also, on α-D-glucosidase (yeast) [6], the inhibition at 1000 µg/mL (stock) is 23.5%. Further, the “Percentage inhibition β-D-Glucosidase Almond” value in the assay with β-D-glucosidase (almond) is on record as 47.9%. Further, the “Percentage inhibition β-D-Glucuronidase Bovine Liver” value in [7] is reported as −2.7%. Further, the inhibition at 25 µM was found to be 16 ± 5% in assay [8] (Homo sapiens, 72 h) and 14 ± 13% in [9] (setting [10]). For the same compound, the concentration for 50% growth inhibition (GI50) in [8] (Homo sapiens, MIA PaCa-2, 72 h) was > 50 µM; in [9] (Homo sapiens, MCF-10A), > 50 µM.
As for `CC1(C)O[C@H]2O[C@H]3[C@@H]([C@H]2O1)N(Cc1ccccc1B1OC(C)(C)C(C)(C)O1)C[C@H]3O` [ortho 2, N-(2-Methylphenylboronic acid pinacol ester)-3,6-dideoxy-3,6-imino-1,2-O-isopropylidene-α-D-gulofuranose], the “inhibition % α-L-Fucosidase Bovine Kidney” value in assay [1] was “^aNI ^b(7.8%)”. For the same compound, the “inhibition % Amyloglucosidase A. niger” value in assay [2] (at 100 μM) was “^cNI ^d(0%)”; in assay [2] (at 1000 μM), “^aNI ^b(3.2%)”. For the same compound, at α-D-glucosidase (yeast) [3], the inhibition at 100 µM was 1%. In addition, the inhibition at 1000 µM on α-D-glucosidase (yeast) [3] was found to be 0%. Moreover, the “inhibition % β-D-Glucuronidase E. coli” value in assay [4] (at 100 μM) is on record as “^cNI ^d(4.1%)”; in [4] (at 1000 μM), “^aNI ^b(5.2%)”. In addition, the “inhibition % β-D-Galactosidase E. coli” value in assay [5] is listed as “^cNI ^d(8.8%)”. For the same compound, the inhibition at 1000 µg/mL (stock) on α-D-glucosidase (yeast) [6] was -2%. Further, the “Percentage inhibition β-D-Glucosidase Almond” value in the assay on β-D-glucosidase (almond) was 73.3%. Further, the “Percentage inhibition β-D-Glucuronidase Bovine Liver” value in [7] is −1.8%. For the same compound, the inhibition at 25 µM was determined as 9 ± 7% in assay [8] (Homo sapiens, 72 h) and 9 ± 4% in assay [9] (setting [10]). In addition, the GI50 in [8] (Homo sapiens, MIA PaCa-2, 72 h) is > 50 µM; in assay [9] (Homo sapiens, MCF-10A), > 50 µM.
With `OB(O)c1ccccc1CN1C[C@@H](O)[C@H]2OC(O)[C@H](O)[C@H]21` (stereo partly drawn) [ortho 3, N-(2-Methylphenylboronic acid)-3,6-dideoxy-3,6-imino-D-gulofuranose], the “inhibition % α-L-Fucosidase Bovine Kidney” value in assay [1] is “^aNI ^b(2.1%)”. The “inhibition % Amyloglucosidase A. niger” value in [2] (at 100 μM) is recorded as “^cNI ^d(0%)”; in assay [2] (at 1000 μM) it was “^aNI ^b(2.1%)”. The inhibition at 100 µM at α-D-glucosidase (yeast) [3] came to 2.9%. In addition, the inhibition at 1000 µM at α-D-glucosidase (yeast) [3] was 1%. Besides, the “inhibition % β-D-Glucuronidase E. coli” value is listed as “^cNI ^d(0%)” in assay [4] (at 100 μM) and “^aNI ^b(8.4%)” in [4] (at 1000 μM). In addition, the “inhibition % β-D-Galactosidase E. coli” value in assay [5] was “^cNI ^d(4.4%)”. For the same compound, the inhibition at 1000 µg/mL (stock) at α-D-glucosidase (yeast) [6] turned out to be 4.1%. In addition, the “Percentage inhibition β-D-Glucosidase Almond” value with β-D-glucosidase (almond) is recorded as 68.6%. For the same compound, in assay [7], the “Percentage inhibition β-D-Glucuronidase Bovine Liver” value was found to be 1.3%. Besides, the inhibition at 25 µM was 5 ± 5% in assay [8] (Homo sapiens, 72 h) and 9 ± 7% in assay [9] (setting [10]). The 50% growth inhibitory concentration (GI50) was > 50 µM in assay [8] (Homo sapiens, MIA PaCa-2, 72 h) and > 50 µM in [9] (Homo sapiens, MCF-10A).
Take “N-(3-Hydroxyphenyl)-1,4-dideoxy-1,4-imino-L-gulitol [meta 7]”: the “inhibition % α-L-Fucosidase Bovine Kidney” value in [1] was “^aNI ^b(2.1%)”. For the same compound, the “inhibition % Amyloglucosidase A. niger” value in [2] (at 100 μM) was “^cNI ^d(5.1%)”; in [2] (at 1000 μM) it was “^aNI ^b(2.1%)”. In addition, the results for the “inhibition % α-D-Glucosidase Yeast” value against α-D-glucosidase (yeast) [3] (at 100 μM) and at α-D-glucosidase (yeast) [3] (at 1000 μM) were “^cNI ^d(3.4%)” and “^aNI ^b(4.3%)”, respectively. Also, the entries for the “inhibition % β-D-Glucuronidase E. coli” value in [4] (at 100 μM) and in assay [4] (at 1000 μM) were “^cNI ^d(0.5%)” and “^aNI ^b(7.5%)”, respectively. Moreover, the “inhibition % β-D-Galactosidase E. coli” value in assay [5] is on record as “^cNI ^d(0%)”. The “Percentage inhibition α-D-Glucosidase Yeast” value at α-D-glucosidase (yeast) [6] turned out to be 19.5%. Besides, the “Percentage inhibition β-D-Glucosidase Almond” value in the assay on β-D-glucosidase (almond) worked out at 2.9%. Moreover, the “Percentage inhibition β-D-Glucuronidase Bovine Liver” value in [7] was −3%. In addition, the “DOSE SCREEN percentage (%) cell growth inhibition MIA-Pa-Ca2 Pancreatic” value in [8] (25 µM of drug, 72 h) came to 39 ± 2%. The GI50 stood at 51 ± 1.5 µM in assay [8] (72 h) and 43 ± 17 µM in assay [9]. The “DOSE SCREEN percentage (%) cell growth inhibition MCF10A Breast (normal)” value in assay [9] (25 µM of drug) is given as 31 ± 16%.
For the compound `CC1(C)O[C@H]2O[C@H]3[C@@H]([C@H]2O1)N(Cc1cccc(B2OC(C)(C)C(C)(C)O2)c1)C[C@H]3O` [meta 2, N-(3-Methylphenylboronic acid pinacol ester)-3,6-dideoxy-3,6-imino-1,2-O-isopropylidene-α-D-gulofuranose], in assay [1], the “inhibition % α-L-Fucosidase Bovine Kidney” value is reported as “^aNI ^b(3.8%)”. The “inhibition % Amyloglucosidase A. niger” value in [2] (at 100 μM) is on record as “^cNI ^d(1.4%)”; in assay [2] (at 1000 μM), “^aNI ^b(0%)”. Moreover, the inhibition at 100 µM at α-D-glucosidase (yeast) [3] was determined as 8.8%. Also, at α-D-glucosidase (yeast) [3], the inhibition at 1000 µM was found to be 0%. Besides, the figures for the “inhibition % β-D-Glucuronidase E. coli” value in assay [4] (at 100 μM) and in [4] (at 1000 μM) were “^cNI ^d(13.7%)” and “^aNI ^b(5.6%)”, respectively. In assay [5], the “inhibition % β-D-Galactosidase E. coli” value was “^cNI ^d(0%)”. Besides, the “Percentage inhibition α-D-Glucosidase Yeast” value on α-D-glucosidase (yeast) [6] turned out to be 7.9%. Besides, the inhibition at 1000 µg/mL (stock) at α-D-glucosidase (yeast) [6] was found to be 9.3%. Besides, the “Percentage inhibition β-D-Glucosidase Almond” value with β-D-glucosidase (almond) is 13.2%. Also, in assay [7], the “Percentage inhibition β-D-Glucuronidase Bovine Liver” value came to 9.9%. Also, the inhibition at 25 µM was 19 ± 8% in assay [8] (Homo sapiens, 72 h) and 6 ± 4% in assay [9] (setting [10]). The GI50 in assay [8] (Homo sapiens, MIA PaCa-2, 72 h) was > 50 µM; in assay [9] (Homo sapiens, MCF-10A), > 50 µM.

Source of the values: publication PMC12655172, “Borylated 5-Membered Ring Iminosugars: Synthesis and Biological Evaluation for Glycosidase Inhibition and Anticancer Properties for Application in Boron Neutron Capture Therapy (BNCT)—Part 2” (Pharmaceuticals, 2025).
